Laboratory results taken from US20110280881A1, “NOVEL ANTI-HSP90 MONOCLONAL ANTIBODY” (RIKEN, priority 2010, published 2011).

What was measured:
[1] = tested on: DC2.4 cells; experiment: Influence of HSP90 inhibitors on expression of cell surface HSP90 (FACS with 6H8); assay type: cell-based; conditions: DC2.4, 37° C., 3 hours; OVA 1 mg/ml, radicicol 25 μM, novobiocin 400 μM
Experimental: DC2.4 cells were incubated in the presence of OVA (in FIG. 4A, i; 1 mg/ml), radicicola (in FIG. 4A, ii; 25 μM) or novobiocin (in FIG. 4A, iii; 400 μM) with 5% CO2 at 37° C. for 3 hours. Next, the cells were cooled on ice. To detect cell surface HSP90, the cells were stained with the 6H8 antibody and then analyzed by FACS.

[2] = tested on: DC2.4 cells and mouse GM-CSF-dependent BMDC; experiment: Influence of cytokines on expression of cell surface HSP90 (FACS with 6H8); assay type: cell-based; conditions: for expression of cell surface HSP90 after IFN treatment: DC2.4 and mouse GM-CSF-dependent BMDC, 24 hours, IFNα 500 U/ml, IFNβ 500 U/ml, IFNγ 50 ng/ml; for MFI of cell surface HSP90 after cytokine treatment versus negative control: BMDC, cytokines 100 ng/ml or 10 ng/ml
Experimental: In view of the possibility that cytokines are variation factors for the expression of cell surface HSP90, the influences of various cytokines on the expression of cell surface HSP90 were examined as described below.
The solid bars indicate the MFI for BMDC incubated in the presence of high concentrations of IFNs (as in FIG. 5B) or other cytokines (100 ng/ml); the grey bars indicate the MFI for BMDC incubated in the presence of low concentrations of IFNs (as in FIG. 5B) or other cytokines (10 ng/ml). The open bars indicate the MFI for BMDC incubated in the absence of the cytokines as negative controls.

[3] = tested on: OT-I CD8+ T cells; experiment: In vitro cross-presentation assay with BMDC of normal and FcRγ KO mouse; assay type: cell-based; conditions: BMDC pulsed 3 hours, co-culture with OT-I CD8+ T cells, IFNγ ELISA
Experimental: (1) A bone marrow-derived dendritic cells (BMDCs) were established from a normal mouse and an FcRγ KO mouse (supplied by Professor Akira Shibuya, Immunology, Life System Medical Sciences, Majors of Medical Sciences, Graduate School of Comprehensive Human Sciences, University of Tsukuba) as described below. Bone marrow was recovered from a mouse femur and tibia, and 1×10^6 cells each were cultured in a 24-well plate using 2 ml/well of a complete RPMI containing 20 ng/ml recombinant mouse GM-CSF (R&D). Half of the medium was exchanged for a fresh medium on day 3 of cultivation, and the cells obtained on day 5 of cultivation were used as the BMDC. (2) BMDCs at Day 5 induced in a GM-CSF-dependent manner was stained with biotin-6H8 (2.5 μg/ml) and streptavidin-APC (0.2 μg/ml), and its fluorescence was determined using FACS Canto (BD).
(1) A pellet of 1×10^6 BMDC cells at Day 5 induced in a GM-CSF-dependent manner were prepared in a 15-ml tube. After adding 400 μl of an antigen (6H8-OVA, OVA, or OVA257-264) thereto, the tube was incubated with 5% CO2 at 37° C. for 3 hours. The cells were fixed in 0.5% para-formaldehyde, after which the cells were washed with 0.1 M glycine and then with RPMI; thereafter, the density was adjusted to 1×10^5 cells/ml. (2) Concurrently, OT-I CD8^+ T cells were purified and the density was adjusted to 1×10^5 cells/ml. […]

[4] = tested on: OT-I CD8+ T cells; experiment: In vivo cross-presentation assay with free 6H8 antibody administered concurrently; set-up: species or system mouse; conditions: antigen 0.3 μg with free 6H8 antibody 30 μg, 72 hours
Experimental: (1) CFSE-labeled CD8^+ T cells of an OT-I/CD45.1 mouse were transferred to recipient mice from the tail vein, with 6H8-OVA [or 6H8 (F(ab′)2)—OVA, or OVA, or IgG2a-OVA] (0.3 μg) and the free 6H8 antibody [or 6H8 (F(ab′)2) or IgG2a] (30 μg) administered from the tail vein concurrently. (2) 72 hours later, the spleen was recovered from each mouse, and 2×10^6 splenocytes were stained with the PE-CD45.1 antibody in a 96-well round-bottomed plate for 30 minutes (while cooling on ice). (3) The CFSE intensity of CD45.1-positive cells (OT-I CD8^+ T cells) was determined using FACS Canto (BD).

Compound	influence on expression level of surface HSP90 [1]	MFI of cell surface HSP90 after cytokine treatment versus negative control [2]	further results
CO[C@@H]1[C@@H](OC(N)=O)[C@@H](O)[C@H](Oc2ccc3c(O)c(NC(=O)c4ccc(O)c(CC=C(C)C)c4)c(=O)oc3c2C)OC1(C)C [novobiocin]	no or almost no influence	–	–
C[C@@H]1C[C@H]2O[C@@H]2/C=C\C=C\C(=O)Cc2c(Cl)c(O)cc(O)c2C(=O)O1 [radicicol]	no or almost no influence	–	–
IFNα	–	–	expression of cell surface HSP90 after IFN treatment [2]: increased
IFNγ: cytokine	–	–	expression of cell surface HSP90 after IFN treatment [2]: increased
IL-5: cytokine	–	no significant difference from the negative control	–
IL-6: cytokine	–	no significant difference from the negative control	–
IL-15: cytokine	–	no significant difference from the negative control	–
IL-18: cytokine	–	no significant difference from the negative control	–
OVA257-264: major OVA epitope peptide (SIINFEKL)	–	–	cross-presentation potential of FcRγ KO mouse-derived dendritic cells compared with normal mouse-derived dendritic cells [3]: equivalent
ovalbumin [ovalbumin used as a model antigen]	do not influence	–	enhancing effect by the 6H8 antibody on proliferation reaction of OT-I CD8+ T cells with this antigen [4]: not noted; cross-presentation potential of FcRγ KO mouse-derived dendritic cells compared with normal mouse-derived dendritic cells [3]: equivalent
